Reference: publication PMC9143450, “Oxonitrogenated Derivatives of Eremophilans and Eudesmans: Antiproliferative and Anti-Trypanosoma cruzi Activity” (Molecules, 2022)

How the values were obtained:
T-47D = test: Antiproliferative SRB assay (NCI protocol), T-47D; type: cell-based, human; conditions: for Selectivity index (SI) on tumor cells: CC50 splenocytes / GI50 T-47D; for GI50: Homo sapiens, T47D, T-47D (breast), 48 h drug exposure, SRB, ± SD
Procedure: (§1) In vitro antiproliferative activity was evaluated using the protocol of the National Cancer Institute (NCI) after 48 h of drug exposure using the sulforhodamine B (SRB) assay.
(§2) The following human solid tumor cell lines were used in this study: HBL-100 (breast), HeLa (cervix), SW1573 (non-small cell lung), T-47D (breast), A549 (lung), and WiDr (colon). These cell lines were a kind gift from Prof. G. J. Peters (VU Medical Center, Amsterdam, The Netherlands). Cells were maintained in 25 cm^2 culture flasks in RPMI 1640 supplemented with 5% heat-inactivated fetal calf serum and 2 mM L-glutamine in a 37 °C, 5% CO2, 95% humidified air incubator. Exponentially growing cells were trypsinized and resuspended in antibiotic containing medium (100 units penicillin G and 0.1 mg of streptomycin per mL). Single cell suspensions displaying > 97% viability by trypan blue dye exclusion test were subsequently counted. After counting, dilutions were made to give the appropriate cell densities for inoculation onto 96-well microtiter plates. Cells were inoculated in a volume of 100 μL per well at densities of 5000 (WiDr and T-47D), and 2500 (A549, HeLa, SW1573 and HBL-100) cells per well, based on their doubling times.
(§3) Chemosensitivity tests were performed using the SRB assay of the NCI with slight modifications. Briefly, pure compounds were initially dissolved in DMSO at 400 times the desired final maximum test concentration. Control cells were exposed to an equivalent concentration of DMSO (0.25% v/v, negative control). Each agent was tested in triplicates at different dilutions in the range 1–100 μM. Drug treatment started on day 1 after plating. Drug incubation periods were 48 h, after which cells were precipitated with 25 μL of ice-cold 50% (w/v) trichloroacetic acid and fixed for 60 min at 4 °C. Then, the SRB assay was performed. The optical density (OD) of each well was measured at 530 nm, using BioTek’s PowerWave XS Absorbance Microplate Reader. Values were corrected for background OD from wells containing only culture medium. The percentage growth (PG) was calculated with respect to untreated control cells (C) at each level of drug concentrations based on the difference in OD at the start time (T0) and at the end of drug exposure (T), according to NCI formulas. Therefore, if T is greater than or equal to T0, the calculation is 100 × ((T − T0)/(C − T0)). If T is lower than T0, denoting cell death, the calculation is 100 × ((T − T0)/(T0)). The effect is defined as the growth percentage, where 50% growth inhibition (GI50) represents the concentration at which PG is +50. Based on these calculations, a PG value of 0 corresponds to the number of cells present at the beginning of drug exposure, while negative PG values denote net cell death.

[1] = test system: Trypanosoma cruzi epimastigotes (RA strain); test: In vitro anti-Trypanosoma cruzi assay ((3H) thymidine uptake); type: cell-based; conditions: for Selectivity Index on T. cruzi epimastigotes: CC50 splenocytes / IC50 epimastigotes; for IC50: epimastigotes (RA strain), ± SD
Procedure: Trypanosoma cruzi epimastigotes (RA strain, from discrete typing unit (DTU) VI) were grown in a biphasic medium. Cultures were maintained by weekly passages at 28 °C [18].
The growth inhibition of T. cruzi epimastigotes was evaluated by a (^3H) thymidine uptake assay as previously described. Natural sesquiterpenes and derivatives were evaluated at concentrations ranging from 1.5 to 50 µg/mL. Benznidazole (Active Pharmaceutical Ingredient) was used as positive control (Elea). The percentage of inhibition was calculated as 100 = {((cpm of treated parasites)/(cpm of untreated parasites)) × 100}.
Figure 5 Effect of the natural sesquiterpene tessaric acid (1), ilicic acid (2), and ilicic alcohol (3) and their derivatives on T. cruzi. Epimastigotes (RA strain) were cultured in the presence of the compounds (50–1.5 µg/mL). Determinations were performed by triplicate. The results are expressed as the mean ± SD. (A) Effect of tessaric acid and derivatives on epimastigotes; (B) Effect of ilicic acid and derivatives on epimastigotes; (C) Effect of ilicic alcohol and derivatives on epimastigotes.

SW1573 = test: Antiproliferative SRB assay (NCI protocol), SW1573; type: cell-based, human; conditions: for Selectivity index (SI) on tumor cells: CC50 splenocytes / GI50 SW1573; for GI50: Homo sapiens, SW1573 (non-small cell lung), 48 h drug exposure, SRB, ± SD
Procedure: as §1, §2, §3

[2] = test system: HeLa, T-47D, WiDr, A549, HBL-100, and SW1573 cell lines; test: Antiproliferative SRB assay, whole panel of human solid tumor cell lines; type: cell-based; conditions: for GI50: Homo sapiens, minimal to maximal GI50 across the cell lines tested, 48 h, SRB, read-out: GI50 values, range over all cell lines tested
Procedure: as §1, §2, §3

HeLa = test: Antiproliferative SRB assay (NCI protocol), HeLa; type: cell-based, human; conditions: for GI50: Homo sapiens, HeLa (cervix), 48 h drug exposure, SRB, ± SD; for Selectivity index (SI) on tumor cells: CC50 splenocytes / GI50 HeLa
Procedure: as §1, §2, §3

HBL-100 = test: Antiproliferative SRB assay (NCI protocol), HBL-100; type: cell-based, human; conditions: for Selectivity index (SI) on tumor cells: CC50 splenocytes / GI50 HBL-100; for GI50: Homo sapiens, HBL-100 (breast), 48 h drug exposure, SRB, ± SD
Procedure: as §1, §2, §3

WiDr = test: Antiproliferative SRB assay (NCI protocol), WiDr; type: cell-based, human; conditions: for Selectivity index (SI) on tumor cells: CC50 splenocytes / GI50 WiDr; for GI50: Homo sapiens, WiDr (colon), 48 h drug exposure, SRB, ± SD
Procedure: as §1, §2, §3

A549 = test: Antiproliferative SRB assay (NCI protocol), A549; type: cell-based, human; conditions: for GI50: Homo sapiens, A549 (lung), 48 h drug exposure, SRB, ± SD; for Selectivity index (SI) on tumor cells: CC50 splenocytes / GI50 A549
Procedure: as §1, §2, §3

[3] = Cytotoxicity on primary cell culture (flow cytometry, PI); type: cell-based; conditions: Balb/c, mouse, primary splenocytes (spleen cells), ± SD, read-out: Cytotoxic activity on spleen cells (CC50)
Procedure: (§4) The cytotoxicity of the natural sesquiterpenes (1–3) and derivatives (4–19) was determined on primary cell cultures (splenocytes obtained from Balb/c mouse). […] Derivatives of tessaric acid have shown an improvement in CC50 values in comparison with the natural sesquiterpene 1. […] All the derivatives synthesized from alcohol ilicic (compounds 10–19) were more toxic to mammalian cells than the natural compound (3).
(§5) The cytotoxicity of the compounds was evaluated on splenocytes obtained from Balb/c mouse (1.5 × 10^5) and incubated with different drug dilutions (5–200 μg/mL) as previously described. Cell death was determined by flow cytometry using a BD FACSaria II cytometer. Cells incubated only with drug vehicle were used as 100% viability control, and death percentage was calculated according to the following formula: Death%=1−(%PI^−cells)drug−treated/(%PI^−cells)100% viability control × 100
(§6) The concentration capable of causing 50% cell death (CC50) was determined using a non-linear regression approach.

[4] = test system: splenocytes obtained from Balb/c mouse; test: as above; type: cell-based; conditions: ± SD, read-out: Cytotoxic activity on spleen cells (CC50)
Procedure: as §4, §5, §6

Structure (SMILES)	Selectivity index (SI) on tumor cells (T-47D)	GI50 (T-47D)	Selectivity Index on T. cruzi epimastigotes [1]	IC50 ([1]; Trypanosoma cruzi)	Selectivity index (SI) on tumor cells (SW1573)	GI50 (SW1573)	GI50 [2]	GI50 (HeLa)	Selectivity index (SI) on tumor cells (HBL-100)	GI50 (HBL-100)	Selectivity index (SI) on tumor cells (WiDr)	GI50 (WiDr)	GI50 (A549)	CC50 [3]	Selectivity index (SI) on tumor cells (HeLa)	Selectivity index (SI) on tumor cells (A549)	other results
C=C(C(=O)N(Cc1ccccc1)C(C)(C)C(=O)NC1CCCCC1)C1CCC2(C)CCCC(C)(O)C2C1 (stereo not shown) [Compound 15]	1.7	19 µM	1.0	22.4 µM	1.5	17 µM	5.3 to 14 µM	14 µM	1.5	19 µM	1.7	18 µM	13 µM	21.5 µM			
C=C(C(=O)N(Cc1ccccc1)C(C)(C)C(=O)NC1CCCCC1)[C@@H]1CCC2=CC(=O)C[C@H](C)[C@@]2(C)C1 [Compound 9]	3.6	21 µM	1.7	45.1 µM	2.6	30 µM	17 to 64 µM	24 µM	1.6	47 µM	2.0	39 µM	28 µM	76.5 µM	3.2	2.7	
C=C(C(=O)N(c1ccccc1)C(C)(C)C(=O)NC1CCCCC1)C1CCC2(C)CCCC(C)(O)C2C1 (stereo not shown) [Compound 14]	>17	23 µM		> 101 µM		27 µM	17 to 64 µM	17 µM		20 µM		20 µM	22 µM	> 405 µM	>24	>18.4	Selectivity index (IS) values, over the tumor cell lines evaluated ([2]; CC50 splenocytes / GI50 tumor cells, across cell lines): greater than 15
C=C(C(=O)N(Cc1ccccc1)C(C)(C)C(=O)NCc1ccccc1)C1CCC2(C)CCCC(C)(O)C2C1 (stereo not shown) [Compound 13]	2.5	11 µM	0.5	59.6 µM	2.5	11 µM	5.3 to 14 µM	8 µM	2.1	13 µM	2.5	11 µM	5.3 µM	27.4 µM	3.4	5.2	
C=C(C(=O)N(c1ccccc1)C(C)(C)C(=O)NCc1ccccc1)C1CCC2(C)CCCC(C)(O)C2C1 (stereo not shown) [Compound 12]	3.2	20 µM	8.0	8 µM	2.4	27 µM	17 to 64 µM	17 µM	3.2	20 µM	2.7	24 µM	22 µM	64.3 µM	3.8	2.9	
C=C(C(=O)O)[C@@H]1CCC2=CC(=O)C[C@H](C)[C@@]2(C)C1 [Compound 1, tessaric acid]		> 100 µM		> 201 µM		> 100 µM		> 100 µM		> 100 µM		> 100 µM		> 329 µM			Trypanocidal activity (in words) ([1]; T. cruzi): nor trypanocidal activity; Antiproliferative activity (in words) ([2]; solid tumor cell lines evaluated): did not show antiproliferative activity; CC50 [4]: 329 µM
C=C(C(=O)N(c1ccccc1)C(C)(C)C(=O)NC(C)(C)C)C1CCC2(C)CCCC(C)(O)C2C1 (stereo not shown) [Compound 10]	2.2	36 µM	4.0	19.6 µM	1.6	50 µM	17 to 64 µM	37 µM	1.2	64 µM	1.7	45 µM	31 µM	78.2 µM	2.1	2.5	
C=C(C(=O)N(Cc1ccccc1)C(C)(C)C(=O)NCc1ccccc1)[C@@H]1CCC2=CC(=O)C[C@H](C)[C@@]2(C)C1 [Compound 7]	1.7	22 µM	8.0	9.3 µM	1.3	30 µM	17 to 64 µM	19 µM	0.9	41 µM	1.0	37 µM	27 µM	38.1 µM	2.0	1.4	IC50 [1]: 4.7 µM
